# According to ChEMBL document CHEMBL1144866, “Surface descriptors for protein-ligand affinity prediction” (J Med Chem, 2003):
# Test: Inhibitory activity against glycogen phosphorylase, activity expressed as -logKi
row,SMILES,-Log Ki
1,NN1C(=O)N[C@@]2(O[C@@H](CO)[C@@H](O)[C@H](O)[C@@H]2O)C1=O,3.836
2,O=C(N[C@H]1O[C@H](CO)[C@@H](O)[C@H](O)[C@H]1O)c1ccccc1,4.092
3,NC(=O)C1OC(CO)C(O)C(O)C1O (configuration not stated),3.357
4,NCC(=O)N[C@H]1O[C@@H](CO)[C@@H](O)[C@H](O)[C@@H]1O,3.432
5,CCCC(=O)N[C@H]1O[C@H](CO)[C@@H](O)[C@H](O)[C@H]1O,4.027
6,COC(=O)N[C@]1(C(N)=O)O[C@H](CO)[C@@H](O)[C@H](O)[C@H]1O,4.796
7,O=C(CBr)N[C@H]1O[C@@H](CO)[C@@H](O)[C@H](O)[C@@H]1O,4.357
8,CCC(=O)N[C@H]1O[C@H](CO)[C@@H](O)[C@H](O)[C@H]1O,4.409
9,CNC(=O)C1OC(CO)C(O)C(O)C1O (configuration not stated),3.796
10,O=C(CCl)N[C@H]1O[C@H](CO)[C@@H](O)[C@H](O)[C@H]1O,4.347
11,NCC1OC(CO)C(O)C(O)C1O (stereo in doubt; form 1),1.462
12,CC(=O)N[C@H]1O[C@H](CO)[C@@H](O)[C@H](O)[C@H]1O,4.495
13,OCC1OC(CO)C(O)C(O)C1O (configuration not stated),2.824
14,CC(=O)NCC(=O)N[C@H]1O[C@H](CO)[C@@H](O)[C@H](O)[C@H]1O,3.004
15,NCC1OC(CO)C(O)C(O)C1O (stereo in doubt; form 2),1.775
16,CS(=O)(=O)OCC1OC(CO)C(O)C(O)C1O (configuration not stated),2.319
17,NC(=O)N[C@H]1O[C@H](CO)[C@@H](O)[C@H](O)[C@H]1O,3.854
